Data reported in patent EP2891491A1, “Use of (r)-phenylpiracetam for the treatment of sleep disorders” (Merz Pharma GmbH & Co. KGaA, priority 2014, dated 2015).

How the values were obtained:
[1] = humans, administered orally; cited from earlier work
[2] = just slightly stronger with (R)- than with (S)-phenylpiracetam; cited from earlier work
rats = assay: motivation tests: progressive ratio task, cost-benefit choice test, consumption test; format: in vivo
Experimental: EXAMPLE 6: Effect of (R)-phenylpiracetam in motivation tests - Figs. 5, 6, 7, 8
Methylphenidate purchased from Sigma (Taufkirchen, Germany) was dissolved in distilled water fresh for each test day. D-Amphetamine purchased from Sigma (Taufkirchen, Germany) was dissolved in 0.9% sterile NaCl solution fresh for each test day. (R)-Phenylpiracetam was dissolved in distilled water fresh for each test day.
One hundred and three male Sprague-Dawley rats (Janvier, Le Genest-St-Isle, France) weighing 225-250 g on arrival were used.
The animals were kept under standard laboratory conditions in groups of up to 4 per care with ad libitum access to water. Standard diet for rodents (Altromin) was available to the animals at 15 g per animal/day
For each test described below, two independent experiments were performed using an identical protocol. After continuous reinforcement training (CRF) training (see below) all animals were assigned to treatment groups, such that performance across all the groups was similar. The treatment groups were evenly distributed throughout the caging system.
In experiment 1 and 2 the following protocols were used:
Overview: Three tests were performed in a consecutive manner on subsequent days. On day 1-2, animals were habituated individually to Skinner boxes in two sessions, one per day, for 30 min. Animals received "free" food pellets at a random time (one pellet per minute on average). On days 3-8 animals were trained in Skinner boxes on a continuous reinforcement schedule (one pellet per lever press). On days 9-10 they were tested in the progressive ratio test (Test 1) off-drug, on days 11-12 on-drug. On day 13, a choice test (Test 2) was performed on-drug, on day 14, a consumption test (Test 3) was performed on-drug. Below, tests are described in detail.
Behavioral testing was conducted in 12 operant test chambers (Med Associates, St. Albans, USA). Each chamber was equipped with a retractable lever, a food dispenser with receptacle, an overhead house light and two stimulus lights, one above the lever and the other above the food receptacle. An infrared photocell beam detected nose pokes into the food receptacle. The apparatus was controlled by a computer system (SmartControl®-Interface and MedPC-software, Med Associates, St. Albans, USA). The light above the food receptacle indicated the delivery of a food pellet in the receptacle. Rats were first habituated to the operant boxes for two sessions (30 min each) on two consecutive days. Thereafter, animals were trained for six sessions on the CRF schedule for 30 min. Followed by 4 sessions (two session off-drug followed by two sessions on-drug) of an increasing fixed ratio (FR) schedule in steps of 5, with 3 repetitions of each step (i.e. 1-1-1; 5-5-5; 10-10-10; ...). When the required FR value of each trial was achieved the light above the food receptacle indicated the delivery of a single food pellet (45 mg, Bioserve, USA). The light remained on until the rat poked its nose in the receptacle. Lever presses while the light was on were counted as perseverative lever presses; they were counted but had no programmed consequences. […] For each session, the value of the last completed ratio (breaking point) was recorded as well as the amount of received rewards, the perseverative lever presses, the duration of the session and the latency to respond. Animals of all treatment groups received respective vehicle/drug infusions 30 min pre-test on the final two sessions involving testing under a PR schedule.
In this task the rats had the choice between working for their preferred food (Bioserve pellets) by pressing the lever on a PR schedule as described above or obtaining lab chow being freely available in a dish (about 15 g) within the operant chamber. The food receptacle and the lever were positioned on the same wall of the operant chamber, the dish containing the lab chow was situated in a corner on the opposite side of the operant chamber. […]

subjects with PD and EDS = conditions: 200 to 400 mg/day vs placebo, 40 subjects with PD and EDS; cited from earlier work

## NC(=O)CN1CC(c2ccccc2)CC1=O (racemic) [phenylpiracetam, 2-(4-phenyl-2-oxopyrrolidin-1-yl)acetamide]
[1]
  half-life: 3 to 5 h

## NC(=O)CN1C[C@H](c2ccccc2)CC1=O [(S)-phenylpiracetam, reference compound]
[2]
  locomotor activity in the open-field test: significant increase
rats; 100 mg/kg
  effect on motivation: only a very weak effect
rats; 100 mg/kg, times lower than (R)-phenylpiracetam
  effect on motivation relative to (R)-phenylpiracetam: 2.5 times
rats; 200 mg/kg
  effect on motivation: no significant effect

## NC(=O)C[S+]([O-])C(c1ccccc1)c1ccccc1 (stereo not drawn) [modafinil]
Subjects with PD and EDS
  Epworth sleepiness score (primary outcome measure) and secondary outcome measures: no benefit
